Results: ChEMBL document CHEMBL1201862, “PubChem BioAssay data set” (2004)
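Growth conditions: 96-well plates. Treatment: test compound, 48 hours, 5 concentrations. Analysis: linear interpolation between bracketing concentrations; unreached endpoints set to highest concentration. Here, GI50 denotes the concentration required for 50% inhibition of growth.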 Calls of active or inactive are those of the source. Cut-off read from the data, not from the text of the source: active = GI50 up to about 1.1 µM and inactive = higher.

How the values were obtained:
Assay in all cases: NCI-60 cell line screen, 48 h
COLO 205 = test system: COLO 205
HOP-62 = test system: HOP-62
SW-620 = test system: SW-620
CCRF-CEM = test system: CCRF-CEM
Malme-3M = test system: Malme-3M
OVCAR-3 = test system: OVCAR-3
EKVX = test system: EKVX
ACHN = test system: ACHN
CAKI-1 = test system: CAKI-1
A549 = test system: A549
OVCAR-8 = test system: OVCAR-8
HCT-15 = test system: HCT-15
A498 = test system: A498
PC-3 = test system: PC-3
UACC-257 = test system: UACC-257
SF-295 = test system: SF-295
MDA-MB-435 = test system: MDA-MB-435
NCI-H522 = test system: NCI-H522
RXF 393 = test system: RXF 393
HOP-92 = test system: HOP-92

SMILES	GI50 (COLO 205)	GI50 (HOP-62)	GI50 (SW-620)	GI50 (CCRF-CEM)	GI50 (Malme-3M)	GI50 (OVCAR-3)	GI50 (EKVX)	GI50 (ACHN)	GI50 (CAKI-1)	GI50 (A549)	GI50 (OVCAR-8)	GI50 (HCT-15)	GI50 (A498)	GI50 (PC-3)	GI50 (UACC-257)	GI50 (SF-295)	GI50 (MDA-MB-435)	GI50 (NCI-H522)	GI50 (RXF 393)	GI50 (HOP-92)
CCOc1ccc2c(c1)/C(=C(\C(Cl)=C(Cl)Cl)[N+](=O)[O-])N2	> 100 µM (inactive)	> 100 µM (inactive)	> 100 µM (inactive)	47.9 µM (inactive)	> 100 µM (inactive)	> 100 µM (inactive)	37.6 µM (inactive)	> 100 µM (inactive)	> 100 µM (inactive)	> 100 µM (inactive)	> 100 µM (inactive)	> 100 µM	> 100 µM (inactive)	> 100 µM (inactive)	> 100 µM (inactive)	> 100 µM (inactive)	> 100 µM (inactive)			
O=C(Nc1ccc(Cl)c(C(F)(F)F)c1)C(=O)C(C(=O)/C=C/c1ccccc1)C1OC(=O)c2ccccc21 (configuration not stated)	> 100 µM (inactive)	> 100 µM (inactive)	> 100 µM (inactive)	> 100 µM (inactive)	> 100 µM (inactive)	> 100 µM (inactive)	> 100 µM (inactive)	> 100 µM (inactive)	> 100 µM (inactive)	> 100 µM (inactive)	> 100 µM (inactive)	> 100 µM	> 100 µM (inactive)		> 100 µM (inactive)	> 100 µM (inactive)		63.1 µM (inactive)	93.5 µM (inactive)	> 100 µM (inactive)
CN1CCN(Cc2ccc(C(=S)Nc3ccccc3)s2)CC1	22.3 µM (inactive)	93.8 µM (inactive)	26.7 µM (inactive)	24 µM (inactive)	89.5 µM (inactive)	> 100 µM (inactive)	65.3 µM (inactive)	92 µM (inactive)	> 100 µM (inactive)	55 µM (inactive)	14.5 µM (inactive)	21 µM	33.7 µM (inactive)	69.7 µM (inactive)	33.5 µM (inactive)	32.3 µM (inactive)	31.9 µM (inactive)	31 µM (inactive)		
Cc1cc(-c2no[n+]([O-])c2-c2cc(C)sc2S(C)(=O)=O)c(S(C)(=O)=O)s1	> 100 µM (inactive)	> 100 µM (inactive)	> 100 µM (inactive)	> 100 µM (inactive)		> 100 µM (inactive)	> 100 µM (inactive)	> 100 µM (inactive)	> 100 µM (inactive)		> 100 µM (inactive)	> 100 µM	> 100 µM (inactive)	> 100 µM (inactive)		> 100 µM (inactive)	> 100 µM (inactive)	87.5 µM (inactive)		> 100 µM (inactive)
CC(=O)N1C(C(=O)NN2CCOCC2)CSC1c1ccccc1 (configuration not stated)	> 100 µM (inactive)	> 100 µM (inactive)	> 100 µM (inactive)	> 100 µM (inactive)	> 100 µM (inactive)	> 100 µM (inactive)	> 100 µM (inactive)	> 100 µM (inactive)	> 100 µM (inactive)	> 100 µM (inactive)	> 100 µM (inactive)	> 100 µM	> 100 µM (inactive)	> 100 µM (inactive)	> 100 µM (inactive)	> 100 µM (inactive)	> 100 µM (inactive)	> 100 µM (inactive)		> 100 µM (inactive)
O=S(=O)(/N=C1/S/C(=N\c2ccccc2)N(c2ccccc2)/C1=N/S(=O)(=O)c1ccccc1)c1ccccc1	26.9 µM (inactive)	28.5 µM (inactive)	19.4 µM (inactive)	28.7 µM (inactive)	22.5 µM (inactive)		21.5 µM (inactive)	19.5 µM (inactive)		22.6 µM (inactive)	22.8 µM (inactive)	14.8 µM	11.4 µM (inactive)	> 10 µM (inactive)	19.1 µM (inactive)					13.6 µM (inactive)
CCOc1cc(/C=C2/C(C)=NN(c3cccc(Cl)c3)/C2=N/c2nc3ccccc3s2)ccc1O		23.2 µM (inactive)	34.6 µM (inactive)	33.2 µM (inactive)		20 µM (inactive)	38.4 µM (inactive)	24.3 µM (inactive)			30.4 µM (inactive)	21.8 µM	24.2 µM (inactive)	19.8 µM (inactive)	23.7 µM (inactive)	24.8 µM (inactive)		21.9 µM (inactive)	38.6 µM (inactive)	23.2 µM (inactive)
O=[N+]([O-])c1ccc(Cc2nc3ccccc3s2)cc1	> 100 µM (inactive)	> 100 µM (inactive)	59.3 µM (inactive)	33.3 µM (inactive)	> 100 µM (inactive)	> 100 µM (inactive)	> 100 µM (inactive)	> 100 µM (inactive)	> 100 µM (inactive)	> 100 µM (inactive)	91.4 µM (inactive)	> 100 µM	> 100 µM (inactive)		> 100 µM (inactive)	> 100 µM (inactive)		60.4 µM (inactive)	> 100 µM (inactive)	> 100 µM (inactive)
O=C1[C@@H]2C(c3ccccc3[N+](=O)[O-])=[N+](c3ccccc3)O[C@@H]2C(=O)N1c1ccc(Cc2ccc(N3C(=O)[C@H]4C(c5ccccc5[N+](=O)[O-])=[N+](c5ccccc5)O[C@H]4C3=O)cc2)cc1	33.4 µM (inactive)	> 100 µM (inactive)	> 100 µM (inactive)	> 100 µM (inactive)	27.7 µM (inactive)	> 100 µM (inactive)	> 100 µM (inactive)	> 100 µM (inactive)	77.8 µM (inactive)	> 100 µM (inactive)	> 100 µM (inactive)	> 100 µM	> 100 µM (inactive)		> 100 µM (inactive)	> 100 µM (inactive)		> 100 µM (inactive)	> 100 µM (inactive)	49 µM (inactive)
CSC1=C(SC)SC(=C2SC3=C(SC(=C4SCCS4)S3)S2)S1	> 100 µM (inactive)	> 100 µM (inactive)	> 100 µM (inactive)	> 100 µM (inactive)	> 100 µM (inactive)	> 100 µM (inactive)	> 100 µM (inactive)	> 100 µM (inactive)	> 100 µM (inactive)	> 100 µM (inactive)	> 100 µM (inactive)	> 100 µM		> 100 µM (inactive)	> 100 µM (inactive)	> 100 µM (inactive)	> 100 µM (inactive)	> 100 µM (inactive)		> 100 µM (inactive)
Cc1ccc(S(=O)(=O)NC(=O)N[C@@H](Cc2c[nH]cn2)C(=O)O)cc1	> 100 µM (inactive)	> 100 µM (inactive)	> 100 µM (inactive)	> 100 µM (inactive)	> 100 µM (inactive)			> 100 µM (inactive)		> 100 µM (inactive)	> 100 µM (inactive)	> 100 µM		> 100 µM (inactive)	> 100 µM (inactive)	> 100 µM (inactive)		> 100 µM (inactive)	> 100 µM (inactive)	> 100 µM (inactive)
FC(F)(F)c1nc(-c2ccccc2)oc1Sc1oc(-c2ccccc2)nc1C(F)(F)F	> 100 µM (inactive)	58.7 µM (inactive)	> 100 µM (inactive)	> 100 µM (inactive)	> 100 µM (inactive)	> 100 µM (inactive)	> 100 µM (inactive)	28.8 µM (inactive)	26.8 µM (inactive)	> 100 µM (inactive)	36.7 µM (inactive)	> 100 µM	> 100 µM (inactive)		> 100 µM (inactive)	34.4 µM (inactive)		45.8 µM (inactive)	24.7 µM (inactive)	39.1 µM (inactive)
CC(N)(/C=C/c1ccccc1)C(=O)O (configuration not stated)	> 100 µM (inactive)	> 100 µM (inactive)	> 100 µM (inactive)		> 100 µM (inactive)	> 100 µM (inactive)	> 100 µM (inactive)	> 100 µM (inactive)	> 100 µM (inactive)	> 100 µM (inactive)	> 100 µM (inactive)	> 100 µM	> 100 µM (inactive)	> 100 µM (inactive)	> 100 µM (inactive)	> 100 µM (inactive)	> 100 µM (inactive)	> 100 µM (inactive)		> 100 µM (inactive)
CC1(C)O[C@H]2OC(CO)C(N=[N+]=[N-])[C@H]2O1 (some centres not stated)	> 100 µM (inactive)	> 100 µM (inactive)	> 100 µM (inactive)	> 100 µM (inactive)	> 100 µM (inactive)	> 100 µM (inactive)	> 100 µM (inactive)	> 100 µM (inactive)	> 100 µM (inactive)	> 100 µM (inactive)	> 100 µM (inactive)	> 100 µM	> 100 µM (inactive)	> 100 µM (inactive)	> 100 µM (inactive)	> 100 µM (inactive)	> 100 µM (inactive)	> 100 µM (inactive)		> 100 µM (inactive)
COc1cc([C@@H]2c3cc4c(cc3[C@@H](NC(=O)c3ccc(C#N)cc3)C3COC(=O)[C@@H]32)OCO4)cc(OC)c1O (some centres not stated)	2.94 µM (inactive)	0.113 µM (active)	0.331 µM (active)	0.0803 µM (active)	0.355 µM (active)	1.85 µM (inactive)	0.979 µM (active)	0.0914 µM (active)	1.14 µM (inactive)	< 0.01 µM (active)	0.719 µM (active)	2.28 µM	1.02 µM (active)		2.58 µM (inactive)	0.233 µM (active)		0.451 µM (active)	1.97 µM (inactive)	0.586 µM (active)
Fc1cccc(F)c1C1SCc2nc3ccccc3n21 (configuration not stated) [THIAZOLOBENZIMIDAZOLE]	> 100 µM (inactive)	> 100 µM (inactive)	> 100 µM (inactive)	52.4 µM (inactive)	55.5 µM (inactive)	47.4 µM (inactive)	64.6 µM (inactive)	> 100 µM (inactive)	> 100 µM (inactive)	> 100 µM (inactive)	77.8 µM (inactive)	54.5 µM	> 100 µM (inactive)		60.8 µM (inactive)	39.8 µM (inactive)		53.7 µM (inactive)	> 100 µM (inactive)	28.5 µM (inactive)
